Key:
[1] = Cytoprotective activity against corticosterone-induced […] PC12 cell damage assessed as cell viability at 50 uM (reference value: 51.13 to 51.51 %); assay type: functional; settings: Rattus norvegicus, PC-12, read-out: Activity
[2] = Cytoprotective activity against corticosterone-induced […] PC12 cell damage assessed as cell viability at 5 uM (reference value: 51.13 to 51.51 %); assay type: functional; settings: PC-12, read-out: Activity
[3] = Cytoprotective activity against corticosterone-induced […] PC12 cell damage assessed as cell viability at 10 uM (reference value: 51.13 to 51.51 %); assay type: functional; settings: PC-12, read-out: Activity
[4] = Toxicity in […] PC12 cells at 50 uM; assay type: cell-based, Rattus norvegicus; settings: pc12, 50 µM
[5] = Cytoprotective activity against corticosterone-induced […] PC12 cells assessed as cell survival at 10 uM preincubated for 1 hr followed by corticosterone stimulation and measured after 24 hrs (reference value: 51.13 to 51.51 %); assay type: functional; settings: PC-12, time 25 hrs, read-out: Activity
Mus musculus [6] = assay: Antidepressant activity in SPF ICR mouse assessed as decrease in immobility duration at 7 mg/kg, po via gavage administered daily for 7 days measured post-last dose by tail suspension test relative to control; assay type: functional; set-up: scale not given: the % may be the effect or the level left; settings: time 7 day
[7] = Toxicity in SPF ICR mouse assessed as body weight growth at 7 mg/kg, po via gavage administered daily for 7 days (reference value: 32.62 +/- 6.17 %); assay type: organism-based; settings: in vivo, 168 h, time 7 day
[8] = Cytoprotective activity against corticosterone-induced […] PC12 cells assessed as cell survival at 5 uM preincubated for 1 hr followed by corticosterone stimulation and measured after 24 hrs (reference value: 51.13 to 51.51 %); assay type: functional; settings: PC-12, time 25 hrs, read-out: Activity
[9] = Toxicity in SPF ICR mouse assessed as body weight at 7 mg/kg, po via gavage administered daily for 7 days measured on day 7 (reference value: 29.54 +/- 1.87 g); assay type: organism-based; settings: in vivo, 168 h, time 7 day
Mus musculus [10] = assay: Antidepressant activity in SPF ICR mouse assessed as decrease in immobility duration at 7 mg/kg, po via gavage administered daily for 7 days measured post-last dose by forced swimming test relative to control; assay type: functional; set-up: scale not given: the % may be the effect or the level left; settings: time 7 day
[11] = Toxicity in SPF ICR mouse assessed as body weight at 7 mg/kg, po administered via gavage measured on day 1 (reference value: 22.24 +/- 0.9 g); assay type: organism-based; settings: in vivo, 24 h, time 1 day
[12] = Cytoprotective activity against corticosterone-induced […] PC12 cell damage assessed as cell viability at 50 uM preincubated for 1 hr followed by corticosterone stimulation and measured after 24 hrs (reference value: 51.13 to 51.51 %); assay type: functional; settings: PC-12, time 25 hrs, read-out: Activity
PC12 = assay: Cytoprotective activity against corticosterone-induced […] PC12 cell damage assessed as increase in cell survival; assay type: functional, cell-based; settings: dose 5-50 µM

| Structure (SMILES) | viability at 50 µM [1] | Activity [4] | further results |
| --- | --- | --- | --- |
| COc1cc2c(cc1OC)CN(CCc1ccc(F)cc1)CC2 | 38.2% |  |  |
| COc1cc2c(cc1OC)CNCC2 | 45.8% |  | viability at 5 µM [2]: 65.7%; viability at 10 µM [3]: 57% |
| COc1cc2c(cc1OC)CN(C(=O)c1ccc(O)cc1)CC2 | 39.8% | Toxic |  |
| COc1cc2c(cc1OC)CN(CCc1ccc(O)cc1)CC2 | 50.4% | Non-Toxic |  |
| COc1cc2c(cc1OC)CN(CCc1ccccc1)CC2 | 54.2% | Non-Toxic |  |
| COc1ccc(CC(=O)N2CCc3cc(OC)c(OC)cc3C2)cc1 | 51.9% |  |  |
| COc1cc2c(cc1OC)CN(C(=O)c1ccccc1O)CC2 | 47.3% | Toxic |  |
| COc1ccc2c(c1O)-c1c(O)c(OC)cc3c1[C@H](C2)[N+](C)(C)CC3 [MAGNOFLORINE] |  |  | viability at 10 µM [5]: 73.7%; Activity (Mus musculus [6]): 65.65%; Activity [7]: 21.15%; viability at 5 µM [8]: 48.6%; Activity [9]: 29.44 g; Activity (Mus musculus [10]): 68.61%; Activity [11]: 24.21 g; viability at 50 µM [12]: 48.6% |
| COc1cc2c(cc1OC)CN(C(C)=O)CC2 | 37.2% | Toxic |  |
| COc1cc2c(cc1OC)CN(C)CC2 | 54.5% | Non-Toxic |  |
| COc1ccc(CN2CCc3cc(OC)c(OC)cc3C2)cc1 | 51.8% | Non-Toxic |  |
| COc1ccc(CCN2CCc3cc(OC)c(OC)cc3C2)cc1 | 69.3% | Non-Toxic | Activity (Mus musculus [6]): 65.85%; Activity [7]: 29.58%; viability at 5 µM [2]: 49.1%; Activity (PC12): Dose-Dependent Effect; viability at 10 µM [3]: 65%; Activity [9]: 27.5 g; Activity (Mus musculus [10]): 57.65%; Activity [11]: 21.3 g |
| COc1cc2c(cc1OC)CN(C(=O)c1cccs1)CC2 | 58.5% |  |  |
| COc1cc2c(cc1OC)CN(C(=O)c1ccc(C(F)(F)F)cc1)CC2 | 48.3% | Toxic |  |
| COc1cc2c(cc1OC)CN(Cc1ccc(F)cc1)CC2 | 49.5% | Non-Toxic |  |
| COc1cc2c(cc1OC)CN(C=O)CC2 | 49.9% | Toxic |  |
| COc1cc2c(cc1OC)CN(C(=O)c1ccc(F)cc1)CC2 | 49.6% | Toxic |  |
| COc1cc2c(cc1OC)CN(C(=O)c1ccncc1)CC2 | 51.2% |  |  |
| CCN1CCc2cc(OC)c(OC)cc2C1 | 58.9% | Non-Toxic |  |
| COc1cc2c(cc1OC)CN(C(=O)C(C)(C)C)CC2 | 33.7% | Toxic |  |
| COc1cc2c(cc1OC)CN(C(=O)c1cc3ccccc3[nH]1)CC2 | 62.8% |  |  |
| COc1cc2c(cc1OC)CN(C(=O)c1ccccc1)CC2 | 35.6% | Toxic |  |
| COc1ccc(C(=O)N2CCc3cc(OC)c(OC)cc3C2)cc1 | 44.8% | Toxic |  |
| COc1cc2c(cc1OC)CN(C(=O)Cc1ccc(O)cc1)CC2 | 42.4% | Toxic |  |
| COc1cc2c(cc1OC)CN(Cc1ccccc1)CC2 | 49.6% | Non-Toxic |  |
| COc1cc2c(cc1OC)CN(C(=O)c1ccc(OC(C)=O)cc1)CC2 | 48.4% | Toxic |  |
| COc1ccc(CCCN2CCc3cc(OC)c(OC)cc3C2)cc1 | 51.8% | Non-Toxic |  |

— ChEMBL document CHEMBL5365470, “Design, synthesis, and biological evaluation of THIQ as antidepressive agents” (Bioorg Med Chem Lett, 2023)
